US20140162974A1, “METHODS FOR MODULATION OF PHOSPHORUS AND FGF23” (Luitpold Pharmaceuticals, Inc., priority 2012, published 2014)
“Also recorded” adds a separate entry of the source.

Legend:
Type in all cases: in vivo, human
Phosphorus = test: VIT-23 study: phosphorus at study visits
Description: (§1) Subjects with a hemoglobin (Hgb) that meets inclusion requirements and no exclusionary criteria will be offered participation in this 5-6 week study.
(§2) During the Treatment Phase, all subjects received a maximum dose of 1000 mg of IV iron. […] If no reaction occurred, the remainder of the dose (up to 15 mg/kg or 1000 mg including the test dose) was given as per Investigator. The infusion was given only when resuscitative techniques for the treatment of anaphylactic and anaphylactoid reactions were readily available.
(§3) Primary Endpoints included changes in blood and urine markers of phosphate and bone metabolism following IV iron administration. Blood markers include (all performed in morning after 10 hr fast): Serum Phosphate; Serum Potassium; Plasma Fibroblast growth factor 23 via 2nd generation Immutopics C-terminal assay; Serum Vitamin D; 1, 25 dihydroxy Vitamin D (1,25 [OH]2D); 25 hydroxy Vitamin D (250H-D); Serum Osteocalcin; Serum Bone-specific Alkaline phosphatase; Plasma intact Parathyroid hormone; Serum creatinine; Hepcidin; Reticulocyte count; Hemoglobin; Ferritin; Transferrin Saturation (TSAT); and Sample for archive. Urine markers (collected over a 3 hour period in the morning) (ratio of phosphate to creatinine determined to offset inter-patient variability in urine concentration) include: Phosphate; Creatinine; Calcium; Amino acids; Glucose; Albumin; Deoxypyridinoline cross link (Dpd)—a collagen type I cross link that indicates bone resorption; Beta-2-microglobulin; and Sample for archive.
(§4) All subjects had laboratory assessments at Screening, Day 0, Day 1 (24 hrs), Day 7, Day 14, and Day 35. Any subject with a change in phosphate value after Day 0 had additional phosphate measurements at 14 day intervals (following Day 35) until the level returned to normal (as defined by the laboratory reference range). Safety evaluation for all subjects included adverse events, physical examination, including vital signs, and laboratory assessments. Three hour urine collections was also performed on Day 0, Day 1 (24 hrs), Day 7, Day 14, and Day 35. Any subject who withdrew from the study will receive a follow up phone call 30 days after they received study drug.
(§5) The “baseline” was the value at Day 0 prior to administration of any study drug. The value of “n” for the baseline measurement may have be different at each study visit because the baseline values were assessed only for those individuals with data at the given visit.

FGF-23 C-Terminal = test: VIT-23 study: plasma FGF-23 C-terminal assay
Description: as §1, §2, §3, §4, §5

[1] = test system: serum phosphate, urinary fractional excretion of phosphate; test: Example 3 trial: serum and urinary phosphate; settings: for mean urinary FEPi over time compared with baseline: by day 7 through day 35; for course of serum phosphate after day 1: through day 35
Description: Study visits were on Days 0 (when iron was infused), 1 (24 hours after iron infusion), 7, 14, and 35. The primary objectives were to determine the effect of iron deficiency on cFGF23 and iFGF23 levels and the effect of intravenous iron on iFGF23 and cFGF23 levels.
Randomization occurred centrally via a fax-based system. […] The complete dose was infused over 15 minutes on day 0. […] An initial test dose of 25 mg was administered slowly over 5 minutes.
Laboratory testing of blood and three-hour urine collections was performed at the screening visit and on study days 0 (when iron was infused), 1 (24 hours after iron infusion), 7, 14, and 35 (see e.g., FIG. 2A). Any subject who experienced a reduction in serum phosphate below the normal range after day 0 underwent additional phosphate measurements at 14 day intervals following day 35 until the level returned to the normal reference range. Safety evaluations of all subjects included ascertainment of adverse events, physical examinations at all study visits, and laboratory assessments. Any subject who withdrew from the study received a follow-up phone call to ascertain adverse events 30 days after they received study drug.
The pre-specified primary endpoints were changes in blood and urine markers of phosphate and bone metabolism among the evaluable population, defined as those subjects with baseline and at least one post-randomization set of FGF23 and blood and urinary phosphate levels. Secondary endpoints included the proportion of subjects achieving a hemoglobin increase […] anytime between baseline and day 35, and the change from baseline to highest hemoglobin, ferritin, and TSAT anytime during the 35-day study period. Additional safety endpoints included incidence, severity, and seriousness of adverse events, and incidence of treatment-emergent abnormal clinical laboratory values in the safety population, defined as all subjects who received the study drug regardless of subsequent laboratory testing.
Blood and urine samples were sent to a central laboratory for analysis (Covance Central Laboratory Service, Indianapolis, Ind.). Hemoglobin, blood counts, iron indices, electrolytes, and serum and urinary phosphate and creatinine were measured with standard, automated, multi-analyte techniques. Urinary fractional excretion of phosphate (FEPi) was calculated from the three-hour, morning urine collections as urinary phosphate x serum creatinine/serum phosphate x urinary creatinine. Serum levels of 25-hydroxyvitamin D and 1,25-dihydroxyvitamin D were measured in duplicate by radioimmunoassay (DiaSorin, Stillwater, Minn.) with intra-assay coefficients of variation (CV)<11.6%. Plasma C-terminal FGF23 (cFGF23) was measured in duplicate in EDTA-plasma samples using a human FGF23 immunometric assay capable of detecting both the intact peptide and its C-terminal fragments (Immutopics, San Clemente, Ca) with intra-assay CV≦3.8%. Because cFGF23 testing was performed in parallel with rolling enrollment and follow-up, all cFGF23 assay plates tested combinations of baseline and post-intervention samples from multiple study participants. Serum intact FGF23 (iFGF23) was measured in batches of baseline and post-intervention samples from multiple study participants at study end using an immunometric assay that detects the intact peptide exclusively (Kyowa Medex Company, Shizuoka, Japan) with intra-assay CV<2.7%. Serum hepcidin levels were measured on days 0, 7, and 35 using an enzyme-linked immunosorbent assay (Intrinsic LifeSciences, La Jolla, Calif.) with intra-assay CV≦19%. Urinary amino acids, glucose, albumin, and beta 2 microglobulin were measured to test for the possibility of global proximal tubular dysfunction. Urinary deoxypyridinoline cross link, and serum osteocalcin and bone-specific alkaline phosphatase were measured to assess bone turnover.
Baseline characteristics are presented as mean±standard error for continuous variables and as proportions for categorical variables. […]

[2] = Day 7 after single IV dose up to 1000 mg iron
[3] = Day 14 after single IV dose up to 1000 mg iron
[4] = Day 35 after single IV dose up to 1000 mg iron

iron dextran [reference compound]
Phosphorus, Visit, Mean (Phosphorus; [2]): 3.55 mg/dL | Phosphorus, Change to Visit, Max (Phosphorus; Day 7 vs baseline): 1.2 mg/dL | Phosphorus, Change to Visit, Mean (Phosphorus; Day 7 vs baseline): -0.07 mg/dL | Phosphorus, Change to Visit, Median (Phosphorus; Day 7 vs baseline): -0.1 mg/dL | Phosphorus, Change to Visit, Min (Phosphorus; Day 7 vs baseline): -0.9 mg/dL | Phosphorus, Visit, Mean (Phosphorus; [3]): 3.58 mg/dL | Phosphorus, Change to Visit, Max (Phosphorus; Day 14 vs baseline): 1.4 mg/dL | Phosphorus, Change to Visit, Mean (Phosphorus; Day 14 vs baseline): -0.06 mg/dL | Phosphorus, Change to Visit, Median (Phosphorus; Day 14 vs baseline): 0.1 mg/dL | Phosphorus, Change to Visit, Min (Phosphorus; Day 14 vs baseline): -1.5 mg/dL | Phosphorus, Visit, Mean (Phosphorus; [4]): 3.55 mg/dL | Phosphorus, Change to Visit, Max (Phosphorus; Day 35 vs baseline): 1.3 mg/dL | Phosphorus, Change to Visit, Mean (Phosphorus; Day 35 vs baseline): -0.08 mg/dL | Phosphorus, Change to Visit, Median (Phosphorus; Day 35 vs baseline): -0.1 mg/dL | Phosphorus, Change to Visit, Min (Phosphorus; Day 35 vs baseline): -1.3 mg/dL | FGF-23 C-Terminal, EDTApl-RUO, Visit, Mean (FGF-23 C-Terminal; Day 1): 151.60 RU/mL | FGF-23 C-Terminal, EDTApl-RUO, Change to Visit, Mean (FGF-23 C-Terminal; Day 1 vs baseline): −716.03 RU/mL | FGF-23 C-Terminal, EDTApl-RUO, Visit, Mean (FGF-23 C-Terminal; Day 7): 114.13 RU/mL | FGF-23 C-Terminal, EDTApl-RUO, Change to Visit, Mean (FGF-23 C-Terminal; Day 7 vs baseline): −682.42 RU/mL | FGF-23 C-Terminal, EDTApl-RUO, Visit, Mean (FGF-23 C-Terminal; Day 14): 107.39 RU/mL | FGF-23 C-Terminal, EDTApl-RUO, Change to Visit, Mean (FGF-23 C-Terminal; Day 14 vs baseline): −733.96 RU/mL | FGF-23 C-Terminal, EDTApl-RUO, Visit, Mean (FGF-23 C-Terminal; Day 35): 360.71 RU/mL | FGF-23 C-Terminal, EDTApl-RUO, Change to Visit, Mean (FGF-23 C-Terminal; Day 35 vs baseline): −683.57 RU/mL | FGF-23 C-Terminal, EDTApl-RUO, Visit, Mean (FGF-23 C-Terminal; Minimum post-baseline value): 94.00 RU/mL | FGF-23 C-Terminal, EDTApl-RUO, Change to Visit, Mean (FGF-23 C-Terminal; Minimum value vs baseline): −732.67 RU/mL | mean urinary FEPi over time compared with baseline [1]: no significant change over time | mean urinary fractional excretion of phosphate (FEPi) on day 1 ([1]; in vivo): trended downwards | serum phosphate within 24 hours after iron administration ([1]; in vivo): increased modestly | course of serum phosphate after day 1 [1]: returned to near baseline levels by day 7 and remained stable for the remainder of the study

polynuclear iron (III)-hydroxide 4(R)-(poly-(1→4)-O-α-glucopyranosyl)-oxy-2(R),3(S),5(R),6-tetrahydroxy-hexanoate [FCM]
Phosphorus, Visit, Mean (Phosphorus; [2]): 2.51 mg/dL | Phosphorus, Change to Visit, Max (Phosphorus; Day 7 vs baseline): 0.7 mg/dL | Phosphorus, Change to Visit, Mean (Phosphorus; Day 7 vs baseline): -0.87 mg/dL | Phosphorus, Change to Visit, Median (Phosphorus; Day 7 vs baseline): -0.8 mg/dL | Phosphorus, Change to Visit, Min (Phosphorus; Day 7 vs baseline): -2.3 mg/dL | Phosphorus, Visit, Mean (Phosphorus; [3]): 3.42 mg/dL | Phosphorus, Change to Visit, Max (Phosphorus; Day 14 vs baseline): 0.7 mg/dL | Phosphorus, Change to Visit, Mean (Phosphorus; Day 14 vs baseline): -0.92 mg/dL | Phosphorus, Change to Visit, Median (Phosphorus; Day 14 vs baseline): -0.7 mg/dL | Phosphorus, Change to Visit, Min (Phosphorus; Day 14 vs baseline): -3.5 mg/dL | Phosphorus, Visit, Mean (Phosphorus; [4]): 3.92 mg/dL | Phosphorus, Change to Visit, Max (Phosphorus; Day 35 vs baseline): 1.0 mg/dL | Phosphorus, Change to Visit, Mean (Phosphorus; Day 35 vs baseline): -0.38 mg/dL | Phosphorus, Change to Visit, Median (Phosphorus; Day 35 vs baseline): -0.2 mg/dL | Phosphorus, Change to Visit, Min (Phosphorus; Day 35 vs baseline): -1.9 mg/dL | FGF-23 C-Terminal, EDTApl-RUO, Visit, Mean (FGF-23 C-Terminal; Day 1): 176.80 RU/mL | FGF-23 C-Terminal, EDTApl-RUO, Change to Visit, Mean (FGF-23 C-Terminal; Day 1 vs baseline): −648.30 RU/mL | FGF-23 C-Terminal, EDTApl-RUO, Visit, Mean (FGF-23 C-Terminal; Day 7): 165.23 RU/mL | FGF-23 C-Terminal, EDTApl-RUO, Change to Visit, Mean (FGF-23 C-Terminal; Day 7 vs baseline): −699.73 RU/mL | FGF-23 C-Terminal, EDTApl-RUO, Visit, Mean (FGF-23 C-Terminal; Day 14): 170.12 RU/mL | FGF-23 C-Terminal, EDTApl-RUO, Change to Visit, Mean (FGF-23 C-Terminal; Day 14 vs baseline): −584.59 RU/mL | FGF-23 C-Terminal, EDTApl-RUO, Visit, Mean (FGF-23 C-Terminal; Day 35): 141.56 RU/mL | FGF-23 C-Terminal, EDTApl-RUO, Change to Visit, Mean (FGF-23 C-Terminal; Day 35 vs baseline): −692.29 RU/mL | FGF-23 C-Terminal, EDTApl-RUO, Visit, Mean (FGF-23 C-Terminal; Minimum post-baseline value): 98.73 RU/mL | FGF-23 C-Terminal, EDTApl-RUO, Change to Visit, Mean (FGF-23 C-Terminal; Minimum value vs baseline): −684.57 RU/mL | day of nadir in serum phosphate ([1]; FCM subjects stratified by serum phosphate<2.0 mg/dL): 14 days | mean urinary FEPi over time compared with baseline [1]: increased significantly compared with baseline | decrease in serum phosphate by day 7 ([1]; evaluable population): 0.6 mg/dL | decrease in serum phosphate by day 14 ([1]; evaluable population): 0.7 mg/dL | mean urinary fractional excretion of phosphate (FEPi) on day 1 ([1]; in vivo): trended downwards | serum phosphate within 24 hours after iron administration ([1]; in vivo): increased modestly | subjects in whom serum phosphate decreased to <2.0 mg/dL ([1]; in vivo): 10 subjects | FEPi in FCM low phosphate subgroup vs the remaining ([1]; stratified analysis, peaked by day 14): increased to a significantly greater extent in the low phosphate subgroup | course of serum phosphate after day 1 [1]: returning towards normal by day 35; also recorded: transient and asymptomatic reductions
